Test results published in patent publication EP1724268A1, “COMPOUND HAVING TGF-BETA INHIBITORY ACTIVITY AND PHARMACEUTICAL COMPOSITION CONTAINING SAME” (KIRIN BEER KABUSHIKI KAISHA, priority 2004, dated 2005).
Read-outs that look alike come from different tables or passages of the source. Marks after values point to notes of the source that are not given here.

Tests used:
[1] = test system: TGFβ signal; assay: TGFβ signal inhibitory activity, (SBE)4-Luc reporter in A549 cells (Test Examples 1A and 1B); assay type: cell-based, human; conditions: Homo sapiens, A549, read-out: TGFβ inhibition rate, %
In short: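 Stable A549 line carrying (SBE)4-Luc Smad3-binding reporter treated with compound plus TGFβ-1 (2 ng/ml) for 4 hr; luciferase read by chemiluminescence. Percent inhibition relative to TGFβ-only and untreated cells, tested at 3 µM and 10 µM, some also at 1 µM.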

[2] = test system: mouse unilateral ureteral obstruction (UUO) model; assay: Anti-fibrotic activity, mouse UUO model, mixed feed for 10 days (Test Example 3); assay type: in vivo; conditions: UUO treatment, kidney, average of five mice ± standard deviation
Procedure: The anti-fibrotic activity of the compounds related to the present invention was evaluated using a mouse unilateral ureteral obstruction (UUO) model which is a renal fibrosis model. Compound r384 produced in the working example was used as the test compound. Seven week-old male BALB/c mice (available from Charles River Japan, Inc.) were purchased and were pre-raised before use in experiments. Regarding diets and drinking water, pellets CE-2 (available from CLEA JAPAN INC.) and sterile tap water were freely fed. The mice underwent laparotomy under pentobarbital anesthesia, and the left renal urinary duct was ligated. […] After administration for 4 days, the mouse left kidney was removed, and the hydroxyproline content as an index of organ fibrosis was measured by the following method. […] The absorbance at 557 nm was then measured. The content of hydroxyproline was determined from the measured data based on a calibration curve for hydroxyproline prepared using control. Further, the content of hydroxyproline thus determined was corrected according to the weight of the homogenized kidney. The anti-fibrotic activity of a compound related to the present invention was evaluated using the same model as used in Test Example 2. […]

[3] = test system: rat unilateral ureteral obstruction (UUO) model; assay: Anti-fibrotic activity, rat unilateral ureteral obstruction (UUO) model (Test Example 5); assay type: in vivo, SD rats; conditions: UUO treatment, left kidney, corrected by total protein of kidney extract, average of 6 rats ± standard deviation
Procedure: The anti-fibrotic activity of the compounds described in the present specification was evaluated using a rat unilateral ureteral obstruction (UUO) model which is a renal fibrosis model. Compound 50 and compound 159 were used as the test compound. Six week-old male SD rats (available from Charles River Japan, Inc.) were purchased and were pre-raised before use in experiments. Regarding diets and drinking water, pellets CE-2 (available from CLEA JAPAN INC.) and sterile tap water were freely fed. The rats underwent laparotomy under pentobarbital anesthesia, and the left renal urinary duct was ligated. Thereafter, the […] underwent suturing operation and were divided into a vehicle administration group (n = 6) and a test compound administration group (n = 6) using the weight as an index. The test compound was mixed in amounts of 0.03% and 0.1% in powder diet CE-2 (available from CLEA JAPAN INC.), and the mixtures were fed as a diet to each rat group from the first day of the ureteral obstruction.
After administration of the mixed feed for 7 days, the left kidney was removed, and the hydroxyproline content as an index of organ fibrosis was measured by the following method. Specifically, renal pieces were first placed in 6 N HCl, were homogenized, and were then heated on a heat block at 130°C for 3 hr to hydrolyze protein. Thereafter, the suspension of renal pieces was neutralized by the addition of an appropriate amount of 4 N NaOH. The neutralized suspension was centrifuged (1000 rpm, 5 min, room temperature) to obtain the supernatant as a kidney extract. A chloramine T liquid, a perchloric acid solution (a solution prepared by adding distilled water to 31.5 ml of 60% perchloric acid to adjust the total volume to 100 ml), and a p-dimethylaminobenzaldehyde solution (a solution prepared by adding […] to 20 g of p-dimethylaminobenzaldehyde to adjust the total volume to 100 ml) were added to the kidney extract, and a reaction was allowed to proceed at 60°C for 20 min. The absorbance at 557 nm was then measured. The content of hydroxyproline was determined from the measured data based on a calibration curve for hydroxyproline prepared using control. Further, the content of hydroxyproline thus determined was corrected according to the total protein content of the kidney extract.
The values in the tables are average of data on 6 rats for each group ± standard deviation.

[4] = test system: mouse unilateral ureteral obstruction (UUO) model; assay: Anti-fibrotic activity, mouse unilateral ureteral obstruction (UUO) model, oral administration (Test Example 2); assay type: in vivo, BALB/c mice; conditions: UUO treatment, left kidney, average of 7 mice ± standard deviation
Procedure: The anti-fibrotic activity of the compounds related to the present invention was evaluated using a mouse unilateral ureteral obstruction (UUO) model which is a renal fibrosis model. Compound r384 produced in the working example was used as the test compound. Seven week-old male BALB/c mice (available from Charles River Japan, Inc.) were purchased and were pre-raised before use in experiments. Regarding diets and drinking water, pellets CE-2 (available from CLEA JAPAN INC.) and sterile tap water were freely fed. The mice underwent laparotomy under pentobarbital anesthesia, and the left renal urinary duct was ligated. Thereafter, the mice underwent suturing operation and were divided into a vehicle administration group (n = 7) and a test compound administration group (n = 7) using the weight as an index. The test compound was weighed, and then one drop of 1 N HCl was added to the test compound to prepare a solution. The solution was then suspended in 0.5% carboxymethylcellulose (solvent). The suspension was forcibly orally administered twice a day with an oral sonde from the day of urinary duct ligation (5, 15, or 50 mg/kg). The solvent was administered to the vehicle administration group in the same manner as described just above.
After administration for 4 days, the mouse left kidney was removed, and the hydroxyproline content as an index of organ fibrosis was measured by the following method. Renal pieces were first placed in 6 N HCl, were homogenized, and were then heated on a heat block at 130°C for 3 hr to hydrolyze protein. Thereafter, the suspension of renal pieces was neutralized by the addition of an appropriate amount of 4 N NaOH. The neutralized suspension was centrifuged (1000 rpm, 5 min, room temperature) to obtain the supernatant as a kidney extract. […] The absorbance at 557 nm was then measured. The content of hydroxyproline was determined from the measured data based on a calibration curve for hydroxyproline prepared using control. Further, the content of hydroxyproline thus determined was corrected according to the weight of the homogenized kidney. […]

[5] = test system: mouse DMN hepatic fibrosis model; assay: Anti-fibrotic activity, mouse DMN hepatic fibrosis model (Test Example 4); assay type: in vivo, BALB/c mice; conditions: DMN administration, 21 days, average of 6 mice ± standard deviation
Procedure: The anti-fibrotic activity of a compound related to the present invention was evaluated using a mouse DMN hepatic fibrosis model as a liver fibrosis model. Compound r384 prepared in the working example was used as the test compound. Six-week-old male BALB/c mice (available from Charles River Japan, Inc.) were purchased and were pre-raised before use in experiments. The mice were divided into a vehicle administration group (n = 6) and a test compound administration group ([…]) using the weight as an index. Thereafter, dimethylnitrosoamine (DMN) diluted with physiological saline was intraperitoneally administered at 15 mg/kg three times per week for 3 weeks to induce hepatic fibrosis. The administration of the test compound was carried out from the first day of the DMN administration. The test compound was mixed at the dosage of 0.015, 0.03, and 0.06% in powder diet CE-2 (available from CLEA JAPAN INC.), and the mixtures were fed as a diet to each mouse group. After 21 days, the mice underwent laparotomy under ether anesthesia, and blood was collected from the heart, followed by measurement of the level of hyaluronic acid in blood as an index of hepatic fibrosis using a hyaluronic acid plate (Chugai Pharmaceutical Co., Ltd.).
The values in the table are average of data on 6 mice for each group ± standard deviation.

[6] = 3 µM, compounds of Reference Examples (Test Example 1B)
[7] = 10 µM, compounds of Reference Examples (Test Example 1B)
[8] = test compound 3 µM, TGFβ-1 2 ng/ml, 4 hr, Table 1A
[9] = test compound 10 µM, TGFβ-1 2 ng/ml, 4 hr, Table 1A

## COc1cc2c(Oc3cc(C)c(C)cc3C(C)=O)ccnc2cc1OCCCN1CCOCC1.Cl [Compound r320, 1-{2-[6-Methoxy-7-(3-morpholin-4-yl-propoxy)-quinolin-4-yloxy]-4,5-dimethyl-phenyl}-ethanone hydrochloride]
[1]; [6]
  inhibition at 3 µM: 100%
[1]; [7]
  inhibition at 10 µM: 100%
[2]; 0.1% mixed feed for 10 days
  Hydroxyproline content (mg/g protein): 9.44 ± 0.53 mg/g protein
[2]; 0.3% mixed feed for 10 days
  Hydroxyproline content (mg/g protein): 9.19 ± 0.38 mg/g protein

## CCc1ccc(Oc2ccnc3cc(OC)c(OC)cc23)c(-c2ncccn2)n1 [Compound 50, 4-(6-Ethyl-2-pyrimidin-2-yl-pyridin-3-yloxy)-6,7-dimethoxy-quinoline]
[1]; [8]
  inhibition at 3 µM: 98%
[1]; [9]
  inhibition at 10 µM: 100%
[3]; 0.03% mixed feed for 7 days, Table 5a
  Hydroxyproline content: 7.33 ± 0.67 mg/g
[3]; 0.1% mixed feed for 7 days, Table 5a
  Hydroxyproline content: 4.67 ± 0.22 mg/g

## CCc1ccc(Oc2ccnc3cc(OC)c(F)cc23)c(-c2ncccn2)n1 [Compound 159, 4-(6-Ethyl-2-pyrimidin-2-yl-pyridin-3-yloxy)-6-fluoro-7-methoxy-quinoline]
[1]; [8]
  inhibition at 3 µM: 99%
[1]; [9]
  inhibition at 10 µM: 100%
[3]; 0.03% mixed feed for 7 days, Table 5b
  Hydroxyproline content: 22.47 ± 0.82 mg/g
[3]; 0.1% mixed feed for 7 days, Table 5b
  Hydroxyproline content: 17.28 ± 0.87 mg/g

## COc1cc2c(Oc3cc4ccccc4nc3C)ccnc2cc1OCC(O)CO (stereo not shown) [Compound r384, 3-[6-Methoxy-4-(2-metharl-quinolin-3-yloxy)-quinolin-7-yloxy]-propane-1,2-diol]
[1]; [6]
  inhibition at 3 µM: 100%
[1]; [7]
  inhibition at 10 µM: 100%
[4]; 5 mg/kg orally twice a day for 4 days
  Hydroxyproline content: 514 ± 20.8 µg/g
[4]; 15 mg/kg orally twice a day for 4 days
  Hydroxyproline content: 488 ± 10.9 µg/g
[4]; 50 mg/kg orally twice a day for 4 days
  Hydroxyproline content: 426 ± 14.2 µg/g
[5]; 0.015% mixed feed
  Blood hyaluronic acid content: 167.8 ± 25.0 ng/mL
[5]; 0.06% mixed feed
  Blood hyaluronic acid content (ng/ml): 97.2 + 11.0** ng/ml
